Reference: PubChem BioAssay AID2060493 (Molecular Pharmacology Branch, DTP, NCI, 2025)
Values joined by “and” are separate entries in the source; they are usually repeats but may differ in a detail not shown here. Identical values can stand only once.

System: 616215-338-R-J1-PDC tumor spheroids, viability
Test: Anticancer human tumor 616215-338-R-J1-PDC patient-derived colon adenocarcinoma cell line growth inhibition [GQUAD]
Details: spheroids with HUVEC and MSC; for viability, T/C: stronger effect = lower value
Description: DNA G-quadruplex Stabilizer Agents in Combinations in Complex Spheroids
A high-throughput screen of multi-cell type tumor spheroids was designed to identify active combinations of DNA G-quadruplex stabilizer agents and targeted small molecules. Complex spheroids include a stromal component modeled by human endothelial cells (HUVEC) and fibroblasts modeled by human mesenchymal stem cells (MSCs). The concentration ranges selected for each drug and investigational agent were based upon clinically achievable concentrations if the clinical Cmax of the agent was known.
Compounds. The drugs and investigational agents: pidnarulex (CX-5461; NSC782164), APTO-253 (NSC789042), BRACO-19 (NSC847499), peposertib (NSC802822), ceralasertib (NSC780249), elimusertib (NSC800525), camonsertib (NSC841442), AZD-1390 (NSC803789), olaparib (NSC753686), talazoparib (NSC767125), ART-558 (NSC835418), sotorasib (NSC818433), MRTX-1133 (NSC836407), SN-38 (NSC673596), topotecan (NSC609699), etoposide (NSC141540), doxorubicin (NSC123127), gemcitabine (NSC613327), 5-fluorouracil (NSC19893), paclitaxel (NSC125973), vemurafenib (NSC761431), panobinostat (NSC761190), R-306465 (JNJ-16241199; NSC773264), adavosertib (NSC754352), TP-3654 (NSC805149), carboplatin (NSC241240), KSQ-4279 (NSC840948), and staurosporine (NSC755774) were obtained from the National Cancer Institute (NCI) Developmental Therapeutics Program Chemical Repository (34). The FDA-approved anticancer drug set is available from the NCI Developmental Therapeutics Program. […] The stock solutions were prepared in dimethyl sulfoxide (DMSO, Sigma-Aldrich, St. Louis, MO, cat. D2650) at 800-fold the tested concentration and stored at -70 degrees C prior to their use. All drugs and investigational agents were tested over a range starting from a high concentration at or near the clinical Cmax and decreasing in half-log increments. If the clinical Cmax for an agent had not been determined, the highest concentration tested was 10 microM.
2.3 Cell Culture. All cells were maintained in an incubator at 37 degrees C and 5% CO2 with 95% humidity. The PDC lines were cultured according to standard operating procedures established by the NCI PDMR. All PDCs were thawed and cultured in Matrigel-coated flasks prepared with a working solution of 1X Ham's F-12 nutrient mix, without supplementation (Invitrogen, cat. 11765054), 100 U/mL penicillin-streptomycin (Invitrogen, cat. 15140122), and 2.5% Matrigel (Corning Inc., cat. 354248) for the first three passages. The 857933-349-R-J2-PDC line was cultured in 6C/Colon 1B media, which includes advanced DMEM/F-12 (Thermo Fisher Scientific, cat. 12634028), 10 mM HEPES (Thermo Fisher Scientific, cat. 15630080), 1X GlutaMAX supplement (Thermo Fisher Scientific, cat. 35050061), 0.1 mg/mL primocin (InvivoGen, cat. ant-pm-2), 10% defined fetal bovine serum, heat inactivated (HyClone Laboratories Inc., cat. SH30070.03HI), 50% L-WRN conditioned media (ATCC, cat. CRL-3276), 1.25 mM N-Acetyl-L-cysteine (Sigma-Aldrich, cat. A9165), 10 mM nicotinamide (Sigma-Aldrich, cat. N0636), 1X B-27 supplement (Thermo Fisher Scientific, cat. 17504044), 1X N-2 supplement (Thermo Fisher Scientific, cat. 17502048), 10 microM Y-27632 dihydrochloride (Tocris Bioscience, cat. 1254), and 50 ng/mL human EGF recombinant protein (Thermo Fisher Scientific, cat. PHG0311). The 485176-168-R4-J1-PDC line was cultured in Panc media, which includes all 6C/Colon 1B media components plus 100 ng/mL human FGF-10 (Thermo Fisher Scientific, cat. 100-26), 500 nM SB-431542 (Selleckchem, cat. S1067), and gastrin (Tocris, cat. 3006).
[…]
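Also: spheroids exposed to agents for 7 days before readout.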
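For viability, T/C in this document: percent viability relative to DMSO vehicle control wells taken as 100%.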

Compound | viability, T/C (compound 0.0316 µM) | viability, T/C (compound 0.1 µM) | viability, T/C (compound 0.316 µM) | viability, T/C (compound 1 µM) | viability, T/C (compound 3.16 µM) | viability, T/C (compound 10 µM) | IC50 (curve of compound) | IC50 (compound alone, run of 04/16/2024) | IC50 (compound alone, run of 04/22/2024) | viability, T/C (compound 0.000999 µM) | viability, T/C (compound 0.00316 µM) | viability, T/C (compound 0.00999 µM) | viability, T/C (compound 0.0999 µM)
COc1cc(C2c3cc4c(cc3C(OC3OC5COC(C)OC5C(O)C3O)C3COC(=O)C23)OCO4)cc(OC)c1O (stereo not drawn) | 106% and 97.9% and 101% | 93% and 95.6% and 92.9% | 72.8% (2×) and 63.2% | 41.4% and 57.3% and 43.4% | 29.8% and 39.9% and 37.9% | 24.3% and 21.6% and 20% | 749 nM and 1560 nM and 781 nM | – | – | – | – | – | –
COc1ccc([C@@H](O)c2cc(-c3ncnc4cc(N5CCOCC5)ccc34)c(F)cc2Cl)nn1 | 115% and 98% and 99.7% | 101% and 102% and 89.1% | 98% and 106% and 97.2% | 96.9% and 97.6% and 92.6% | 97.4% and 100% and 94.8% | 56.7% and 49% and 51.9% | > 10000 nM and 9780 nM | – | – | – | – | – | –
COc1cccc2c1C(=O)c1c(O)c3c(c(O)c1C2=O)CC(O)(C(=O)CO)CC3OC1CC(N)C(O)C(C)O1 (stereo not drawn) | 99.9% and 99.3% and 97.8% | 86.1% and 94.3% and 81% | 45.8% and 52.1% and 60.8% | 33.6% and 31% and 57.7% | 24.8% and 24.6% and 27.7% | 1.26% and 0.35% and 6.04% | 411 nM and 470 nM and 878 nM | – | – | – | – | – | –
COc1ncnc(C2CC2)c1-c1ncc2cnn(Cc3ccc(-c4nc(C(F)(F)F)cn4C(C)C)cc3)c2n1 | 113% and 96.4% and 110% | 108% and 109% and 97.3% | 99.2% and 103% and 102% | 116% and 99.7% and 105% | 106% and 100% (2×) | 106% and 92.4% and 93.6% | > 10000 nM | – | – | – | – | – | –
Cc1[nH]c2ccc(F)cc2c1-c1nc2c3cccnc3c3ncccc3c2[nH]1 | 105% [middle of 12 runs] | 104% [middle of 12 runs] | 99.5% [middle of 12 runs] | 100% [middle of 12 runs] | 91.3% [middle of 12 runs] | 98% [middle of 12 runs] | – | > 10000 nM | > 10000 nM | – | – | – | –
Cc1[nH]c2ccccc2c1CCNCc1ccc(/C=C/C(=O)NO)cc1 | 108% and 94.3% and 87.4% | – | 17.6% and 10.8% and 27.7% | – | – | – | 154 nM and 151 nM and 189 nM | – | – | 103% and 102% and 97.5% | 95.9% and 93.8% and 101% | 92.1% and 107% and 103% | 69.3% and 72.3% and 79.7%
Cc1cccc(N(C)C(=O)C2C(O)CCN2c2nc(C)cc(C(F)(F)F)c2C#N)c1 (stereo not drawn) | 91.4% and 99.2% and 101% | 106% and 94.5% and 102% | 94.1% and 103% and 102% | 94% and 96.9% and 105% | 102% and 98.7% and 113% | 102% and 92.6% and 103% | > 10000 nM | – | – | – | – | – | –
Cc1cnc(CNC(=O)c2c(=O)c3ccc(N4CCCN(C)CC4)nc3n3c2sc2ccccc23)cn1 | 104% [middle of 12 runs] | – | – | – | 31.6% [middle of 12 runs] | 25.1% [middle of 12 runs] | – | – | – | – | – | – | –
Cn1ncnc1[C@H]1c2n[nH]c(=O)c3cc(F)cc(c23)N[C@@H]1c1ccc(F)cc1 | 88.4% and 99.1% and 102% | – | 99% and 97.3% and 99.4% | – | – | – | > 316 nM | – | – | 101% and 92.4% and 96.4% | 90.2% and 96.7% and 93.7% | 104% and 101% and 99.2% | 106% and 100% (2×)
Nc1ccn(C2OC(CO)C(O)C2(F)F)c(=O)n1 (stereo not drawn) | 53.3% and 42.5% and 53% | 21.3% and 23.8% and 25.2% | 16.9% and 9.13% and 18.7% | 17.8% and 10.8% and 15.7% | 14% and 12.8% and 17.5% | 17.1% and 11.2% and 17.3% | 35.6 nM and < 31.6 nM and 35.8 nM | – | – | – | – | – | –
O=C(NO)c1cnc(N2CCN(S(=O)(=O)c3ccc4ccccc4c3)CC2)nc1 | 101% and 114% and 112% | 96.7% and 102% and 94.6% | 53.2% (2×) and 60.8% | 1.44% and 0.67% and 2.74% | 0.23% and 0.21% and 0.06% | 0.22% and 0.09% | 339 nM and 331 nM and 380 nM | – | – | – | – | – | –
O=C(c1cc(Cc2n[nH]c(=O)c3ccccc23)ccc1F)N1CCN(C(=O)C2CC2)CC1 | 96.6% and 106% and 92.3% | 105% and 99.2% and 101% | 98.7% and 104% and 96.1% | 96.9% and 105% and 96.2% | 102% and 105% and 98.3% | 67.2% and 66.3% and 73.1% | > 10000 nM | – | – | – | – | – | –
O=c1[nH]cc(F)c(=O)[nH]1 | 108% and 102% and 111% | 94.5% and 99.6% and 87% | 68.3% and 78.9% and 59.7% | 40.8% and 52.1% and 38% | 39.3% and 43.9% and 33.4% | 38.3% and 41.7% and 35.4% | 729 nM and 1280 nM and 523 nM | – | – | – | – | – | –
